{"source": "patent US12485132B2", "about": "“GPX4 inhibitors and senolytic compounds and uses thereof” (Rubedo Life Sciences, Inc., priority 2023, dated 2025)", "key": {"[1]": {"test_system": "A549 cells", "test": "Lipid peroxidation assay by flow cytometry (BODIPY 581/591 C11)", "assay_type": "cell-based, human", "conditions": "0.02, 0.2 and 2 μm, 18.5 hours", "protocol": "Inhibition of the cellular activity of GPX4 can be estimated by changes in lipid peroxidation levels that can be detected by the oxidation of BODIPY 581/591 C11, a ratiometric fluorescent indicator reacting with free radicals produced during membrane peroxidation (Drummen et al., Free Radic Biol Med 2002 33 (4): 473-90; and Martinez et al., Methods Mol Biol 2020 2018:125-130). For a lipid peroxidation assay by flow cytometry, A549 cells were seeded at 333,000 cells per well in 12-well plates. On the following day, culture media was replaced with 1 mL media containing either DMSO or compound 32 (0.02, 0.2 and 2 μm), and cultures were incubated at 37° C. for 18.5 hours. Thirty minutes before the end of the incubation period, 2 μm BODIPY 581/591 C11 (D3861, Invitrogen) was added to cells. Following cell collection by trypsinization, cells were subjected to flow cytometry analysis (BD FACSAria), and gated for the live cell population, which was analyzed for fluorescence signal associated with the oxidized state of BODIPY 581/591 C11. The results are illustrated in FIG. 4."}, "[2]": {"test_system": "senescent normal human dermal fibroblasts", "test": "Rescue of compound-induced cell death by ferrostatin-1 in senescent fibroblasts", "assay_type": "cell-based", "conditions": "compounds at 1.11 μM, ferrostatin-1 at 0.375 and 6 μM; 24 hours; CellTiter-Glo", "from_the_text": "Cell death induced by ferroptosis-inducing agents can be characterized by rescuing the cellular response with radical trapping agents that prevent the accumulation of phospholipid hydroperoxides (Stockwell et al., Cell Chem Biol 2020 27 (4): 365-375). As such, ferrostatin-1 was identified as a potent inhibitor of ferroptosis for which a free radical trapping mechanism had been reported (Skouta et al., J Am Chem Soc 2014 136 (12): 4551-6; Zika et al., ACS Cent Sci. 2017 3 (3): 232-243; and Miotto et al., Redox Biol. 2020; 101328). To determine whether compounds 18 and 32 induce ferroptosis in senescent cells, normal human dermal fibroblasts were induced to undergo senescence by treatment with a sublethal concentration of chemotherapy (bleomycin sulfate), followed by a rest period without chemotherapy similarly to previous reports (Aoshiba et al., 2003 3:436-43). Cells were maintained in DMEM media (high glucose, 4 mM L-glutamine, no sodium pyruvate) supplemented with 10% heat-inactivated fetal bovine serum in a humidified incubator at 37° C. with 5% carbon dioxide and 5% oxygen. Cellular senescence was qualified by reduced EdU (5-ethynyl-2′-deoxyuridine) incorporation and increased SA-β-Gal (senescence-associated beta-galactosidase) staining compared to proliferating untreated cells. Senescent fibroblasts were plated into 96-well plates at a density of 10,000 cells per well. The next day, ferrostatin-1 was diluted in cell medium to reach a final concentration of 0.375 and 6 μM and was added to cells. Approximately 30 minutes after the addition of ferrostatin-1, compounds 18 and 32 at 1.11 μM, or the peptidyl transfer inhibitor puromycin at 10 μM were added to cells. Cells were incubated with the compounds for 24 hours, at which point viability was quantified using the CellTiter-Glo assay (Promega). The viability for treated cells was determined relative to untreated control cells."}}, "data": [{"smiles": "C#CC(F)(F)[C@]1(O)CC[C@H]2[C@@H]3CCC4=CC(=NNC(=O)NC5CC5)CCC4=C3[C@H](c3ccc(C4CC4)cc3)C[C@@]21C", "note": "[Compound 32, N-cyclopropyl-2-((8S,11S,13S,14S,17S)-11-(4-cyclopropylphenyl)-17-(1,1-difluoroprop-2-yn-1-yl)-17-hydroxy-13-methyl-1,2,6,7,8,11,12,13,14,15,16,17-dodecahydro-3H-cyclopenta[a]phenanthren-3-ylidene)hydrazine-1-carboxamide]", "values": [{"measurement": "cellular lipid peroxidation (oxidized BODIPY 581/591 C11 signal)", "setting": "[1]", "value": "induced markers of cellular lipid peroxidation"}, {"measurement": "inhibition by ferrostatin-1 of compound-induced cell death", "setting": "[2]", "value": "potently inhibits cell death induced by compounds 18 and 32"}]}]}
